Measured values as given in PubChem BioAssay AID1645868 (Buhrlage Lab, Dana-Farber Cancer Institute and Novartis …, 2021).
The source made the active and inactive calls.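 The calls were made as follows: active = maximal percent inhibition of the deubiquitinase OTUD3 of at least 30% across the tested doses; inactive = the rest.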

These compounds were tested against OTU domain-containing protein 3 (Homo sapiens) (UniProt Q5T2D3) (assay: Validation of screening hits, potency titration, in vitro enzymatic, OTU domain-containing protein 3 DUB inhibitors (AID 1645868)). Settings: purified OTUD3, ubiquitin-rhodamine cleavage fluorescence, 2 h.
OTU domain-containing protein 3 (Homo sapiens), sequence (Q5T2D3 whole entry, looked up, the tested form may be a part): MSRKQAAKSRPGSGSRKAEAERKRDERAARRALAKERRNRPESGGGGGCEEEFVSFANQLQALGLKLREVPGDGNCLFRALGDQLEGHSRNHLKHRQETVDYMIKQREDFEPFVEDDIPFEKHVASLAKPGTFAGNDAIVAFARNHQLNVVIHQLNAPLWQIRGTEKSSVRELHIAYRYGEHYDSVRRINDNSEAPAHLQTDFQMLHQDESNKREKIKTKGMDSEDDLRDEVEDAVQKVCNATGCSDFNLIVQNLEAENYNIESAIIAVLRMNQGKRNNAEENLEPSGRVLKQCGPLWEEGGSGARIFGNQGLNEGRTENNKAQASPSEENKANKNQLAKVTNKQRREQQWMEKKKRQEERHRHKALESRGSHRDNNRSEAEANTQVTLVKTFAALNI
With `CCN(CC)c1nc(F)c2c(c1F)S(=O)(=O)CCN2Cc1cccnc1` the IC50 was > 50 µM (inactive).
`CCCc1c(C(=O)O)c(O[C@H]2O[C@H](C)[C@@H](OC)[C@H](OC)[C@@H]2OC)cc2cc3c(c(O)c12)C(=O)c1c(O)cc(O[C@@H]2O[C@@H](C)[C@H](O[C@H]4O[C@H](C)[C@@H](OC)[C@H](OC)[C@@H]4O)[C@@H](OC)[C@H]2O)cc1C3=O` was tested, and the IC50 was > 50 µM (inactive).
`Cc1ccc(-n2c(=O)c3ccccc3n(Cc3c(F)cccc3Cl)c2=O)cc1` was tested, and the IC50 was > 50 µM (inactive).
In the case of `C/C=C\C1=CC(=O)[C@]23C[C@H]2[C@]2(C)CO[C@@]1(O)[C@@]3(O)O2`, the IC50 is reported as > 50 µM (inactive).
With `Oc1ccc(-c2nc3cnccn3c2NCCc2ccccc2)c(O)c1` the IC50 was > 50 µM (inactive).
`COC(=O)C1C(c2ccc(OC)cc2)C2(C(=O)c3ccccc3C2=O)C2C=Cc3ccccc3N12` (stereo not drawn) was tested, and the IC50 was > 50 µM (inactive).
For `CCCCCC(O)c1c(O)cc2c(c1O)C(=O)c1c(O)cc(O)cc1C2=O` (stereo not drawn), the IC50 was > 50 µM (inactive).
`O=C(NCc1ccccc1Cl)C1CCCN(c2nc3ccsc3c(=O)s2)C1` (stereo not drawn) was tested, and the IC50 was > 50 µM (inactive).
For `COc1ccc(OC)c2c(C)cc(N3CCN(S(=O)(=O)c4ccc5c(c4)CCCN5S(C)(=O)=O)CC3)nc12`, the IC50 was 21.1 µM.
With `COc1ccc(NC(=O)CSc2nnc(Cc3cccc4ccccc34)n2C)cc1` the IC50 was > 50 µM (inactive).
Compound `COc1ccc(CNC(=O)CCc2nnc3n(Cc4ccccc4Cl)c(=O)c4ccccc4n23)cc1` has an IC50 of 13.1 µM.
`Cc1nc2nc(SCc3nc4ccccc4n3C)[nH]c2cc1Br` was tested, and the IC50 was > 50 µM (inactive).
`O=c1c2cnc(N3CCOCC3)nc2ccn1CCc1ccccc1` was tested, and the IC50 was 28 µM.
In the case of `COc1cc(C(=O)OCc2csc(-c3ccccc3)n2)ccc1OCC(=O)Nc1ccc(F)cc1`, the IC50 is reported as > 50 µM (inactive).
For `O=C(c1cscn1)N1CCC2(CC1)CC1(CO2)Nc2ccccc2-n2cccc21` (stereo not drawn), the IC50 was > 50 µM (inactive).
Compound `CC(=O)c1ccc(NC(=O)c2ccc(N3CCCCS3(=O)=O)cc2Cl)cc1` has an IC50 of 37 µM.
For `COc1ccccc1/C=C/C(=O)Nc1nc2n(n1)C(c1ccc(Cl)cc1)CC(=O)N2` (stereo not drawn), the IC50 was > 50 µM (inactive).
In the case of `Cc1ccccc1C(=O)OCCN1C(=O)c2cccc3c(N4CCOCC4)ccc(c23)C1=O`, the IC50 is reported as > 50 µM (inactive).
`CN[C@H]1CC2(CCN(C(=O)CCCn3cccn3)CC2)OC[C@]1(C)O` was tested, and the IC50 was > 50 µM (inactive).
For `O=C(CCc1ccccc1)N(CC1CCCO1)c1nc2ccccc2s1` (stereo not drawn), the IC50 was > 50 µM (inactive).
Compound `O=C(Nc1cccc(-c2nc3ccccc3[nH]2)c1)c1cc2ccccc2oc1=O` has an IC50 of 22 µM.
`CCOC(=O)c1cc2c(ccn2C)n1CC(=O)N1CCC(C)CC1` was tested, and the IC50 was > 50 µM (inactive).
`CC(=O)c1cccc(NC(=O)c2ccc3[nH]c4c(c3c2)CC(C)CC4)c1` (stereo not drawn) was tested, and the IC50 was > 50 µM (inactive).
In the case of `O=C(Nc1ccc(-c2cn3ccccc3n2)cc1)C1C=C2C=C(Br)C=CC2OC1=O` (stereo not drawn), the IC50 is reported as > 50 µM (inactive).
For `FC(F)(F)c1cccc(N2CCN(c3nc4ccccc4n4nnnc34)CC2)c1`, the IC50 was > 50 µM (inactive).
`Cc1ccc([N+](=O)[O-])cc1S(=O)(=O)Nc1cc2sc(=O)oc2c2ccccc12` showed an IC50 of 35.9 µM.
Compound `O=c1[nH]c(C2CCN(S(=O)(=O)c3ccc(S(=O)(=O)NC4CCCCC4)cc3)CC2)nc2c1nnn2Cc1c(Cl)cccc1Cl` has an IC50 of 18.5 µM.
With `COc1ccc(C(=O)NCC(c2ccc3c(c2)CCCN3C)N2CCCC2)cc1` (stereo not drawn) the IC50 was > 50 µM (inactive).
In the case of `CCOC(=O)c1cc2c(ccn2C)n1Cc1cccc2ccccc12`, the IC50 is reported as > 50 µM (inactive).
With `O=C(Nc1cccc(N2CCCC2=O)c1)c1cccc2cccnc12` the IC50 was > 50 µM (inactive).
For `c1ccc2c(c1)CCc1c-2nc2ccccc2c1N1CCOCC1`, the IC50 was > 50 µM (inactive).
In the case of `Cc1nn(C)c2c1[C@@H](c1ccc(F)cc1)[C@H](NC(=O)c1ccccc1)C(=O)N2`, the IC50 is reported as > 50 µM (inactive).
In the case of `COc1ccc(-n2c(=O)c(CCC(=O)O)nc3ccccc32)cc1`, the IC50 is reported as > 50 µM (inactive).
For `O=C(CSc1nc2cc(S(=O)(=O)Nc3ccccc3Cl)ccc2o1)Nc1ccc(N2CCOCC2)cc1`, the IC50 was > 50 µM (inactive).
For `COc1ccc(CCNC(=O)COc2ncnc3oc(C)c(C)c23)cc1OC`, the IC50 was > 50 µM (inactive).
Work on `COc1cc(C)cc2c1C(=O)c1c(cc(O)c(Cl)c1O)C2=O` yielded an IC50 of 2.08 µM.
For `Cc1ccc(Nc2nc(Nc3cccc(F)c3)nc3nccnc23)c(C)c1`, the IC50 was > 50 µM (inactive).
With `CCCc1nc2sc3c(NCc4ccco4)ncnc3c2c2c1CCC2` the IC50 was > 50 µM (inactive).
With `CN(C(=O)c1ccncc1)[C@H]1CC[C@@]2(C)C[C@H](c3ccccc3)C[C@](C)(O2)[C@@H]1O` the IC50 was > 50 µM (inactive).
In the case of `CSc1nc(Cc2ccc(Cl)cc2)nc2ccccc12`, the IC50 is reported as > 50 µM (inactive).
`Cn1c(=O)c(C(=O)CN2CCN(c3ccc(O)cc3)CC2)c(N)n(Cc2ccccc2)c1=O` was tested, and the IC50 was > 50 µM (inactive).
In the case of `O=S(=O)(c1ccccc1Cl)N1CCN(c2ccc3nnc(-c4ccco4)n3n2)CC1`, the IC50 is reported as > 50 µM (inactive).
In the case of `CC1CCN(c2cc(-n3cnc(C(=O)N4CCCCC4)c3)ncn2)CC1`, the IC50 is reported as > 50 µM (inactive).
With `COc1ccccc1NS(=O)(=O)c1ccc2oc(SCC(=O)c3ccccc3)nc2c1` the IC50 was > 50 µM (inactive).
With `CCOc1ccc2c(c1)c(=O)c(C(=O)c1ccccc1)cn2CC(=O)Nc1ccccc1` the IC50 was 19.4 µM.
`Cc1nn(-c2ccccc2)c2c1N=C1C(Cl)=CC(Cl)=CN1C21C(=O)Nc2ccccc21` (stereo not drawn) was tested, and the IC50 was > 50 µM (inactive).
In the case of `Cc1ccc(S(=O)(=O)Nc2ccccc2SCCS(=O)(=O)c2ccc(Cl)cc2)cc1`, the IC50 is reported as > 50 µM (inactive).
With `O=C(NC1CCN(c2nc(-c3cccnc3)nc3ccccc23)CC1)c1cccnc1` the IC50 was > 50 µM (inactive).
In the case of `Cc1ccc(CNC(=O)CCCn2c(=O)c3sccc3n(CC(=O)OCc3ccccc3)c2=O)cc1`, the IC50 is reported as 3.54 µM.
For `CC(C)Cc1nc2oc3c(N(C)CCO)ncnc3c2c2c1CCC2`, the IC50 was > 50 µM (inactive).
In the case of `CC(=O)Nc1ccc(O)c(-c2nc3cc(C)ccc3o2)c1`, the IC50 is reported as > 50 µM (inactive).
Work on `O=C(COc1ccc(Cl)cc1Cl)Nc1ccc2[nH]c(=O)[nH]c2c1` yielded an IC50 of 19.2 µM.
For `Cc1cc(O)cc2cc3c(c(O)c12)C(=O)CCC3O` (stereo not drawn), the IC50 was > 50 µM (inactive).
In the case of `Cc1c(Cl)cccc1NC(=O)Cn1ccc2ccccc2c1=O`, the IC50 is reported as > 50 µM (inactive).
`CC1CCc2c(sc3nc(CC#N)[nH]c(=O)c23)C1` (stereo not drawn) was tested, and the IC50 was > 50 µM (inactive).
With `O=C1N(Cc2ccc(F)cc2)CCN1c1ccc2c(c1)CCC2` the IC50 was > 50 µM (inactive).
For `COc1ccc(NC(=O)CC(=O)c2ccc([N+](=O)[O-])cc2)cc1S(=O)(=O)Nc1ccc(Br)cc1`, the IC50 was 28.7 µM.
In the case of `Cc1c(S(=O)(=O)NC2CCCCNC2=O)sc2ccc(Cl)cc12` (stereo not drawn), the IC50 is reported as > 50 µM (inactive).
In the case of `COc1cccc2sc(N3CCN(c4nc5ccccc5s4)CC3)nc12`, the IC50 is reported as > 50 µM (inactive).
In the case of `Nc1ncnc2c1ncn2[C@@H]1O[C@H](CO)C[C@@H]1O`, the IC50 is reported as 33.4 µM.
`CCCCCCCc1cc(O)cc(O)c1` was tested, and the IC50 was > 50 µM (inactive).
For `CN1C(=O)COc2cc(-c3noc(C(=O)NC4CCCCCC4)n3)ccc21`, the IC50 was > 50 µM (inactive).
In the case of `Cc1noc(C)c1COc1cccc(C(=O)Nc2cc(Cl)ccc2-n2cncn2)c1`, the IC50 is reported as > 50 µM (inactive).
With `CCOc1ccccc1NC(=O)COC(=O)C(c1ccccc1)c1ccccc1` the IC50 was > 50 µM (inactive).
For `CC(=O)c1cccc(NC(=O)c2ccc(CN(c3ccc(C)c(C)c3)S(C)(=O)=O)cc2)c1`, the IC50 was > 50 µM (inactive).
In the case of `Cc1noc(-c2cccn(Cc3cccc(C(F)(F)F)c3)c2=O)n1`, the IC50 is reported as > 50 µM (inactive).
For `O=c1c2c(ccn1Cc1cc(F)ccc1F)ccn2Cc1cccnc1`, the IC50 was > 50 µM (inactive).
Work on `Cc1cc(C)c(NC(=O)Cn2c(=O)n(CCC(=O)NCc3ccc4c(c3)OCO4)c(=O)c3sccc32)c(C)c1` yielded an IC50 of 12.6 µM.
`Cn1c(=O)[nH]c2nncnc2c1=O` was tested, and the IC50 was > 50 µM (inactive).
In the case of `COCCCn1c(C(=O)NCCc2ccccc2)cc2c(=O)n3cccc(C)c3nc21`, the IC50 is reported as > 50 µM (inactive).
For `COc1ccc(C(C(=O)NCc2ccccc2)N(C(=O)CCN2CCc3ccccc32)c2ccc(C)c(C)c2)cc1` (stereo not drawn), the IC50 was > 50 µM (inactive).
With `CCOc1ccc(-n2c(C)cc(/C=C(\C#N)c3nc4ccccc4[nH]3)c2C)cc1` the IC50 was > 50 µM (inactive).
In the case of `N#Cc1c(-c2ccccc2)ccn(Cc2cccc(C(F)(F)F)c2)c1=O`, the IC50 is reported as > 50 µM (inactive).
In the case of `COc1ccc(-c2cc(-c3nnc4n3CCCCC4)n(-c3ccccc3)n2)cc1`, the IC50 is reported as > 50 µM (inactive).
`COc1ccc(/C=C/C(=O)N2CCc3ccccc32)cc1S(=O)(=O)N1CCOCC1` was tested, and the IC50 was > 50 µM (inactive).
For `O=C(NCCc1ccccc1)c1nnn(Cc2cccc(Cl)c2)c1-n1cccc1`, the IC50 was > 50 µM (inactive).
With `CC(C)CC(NC(=O)c1ccc(Cl)cc1Cl)c1nc2ccccc2[nH]1` (stereo not drawn) the IC50 was > 50 µM (inactive).
In the case of `O=C(Nc1cccc(F)c1)c1ncoc1-c1ccco1`, the IC50 is reported as > 50 µM (inactive).
`CCCc1nc2sc3c(N(CC)CC)ncnc3c2c2c1CCC2` was tested, and the IC50 was > 50 µM (inactive).
With `O=C(c1ccco1)N1CCC2(CC1)CC1(CO2)Nc2ccccc2-n2cccc21` (stereo not drawn) the IC50 was > 50 µM (inactive).
For `CC1=C(c2ccc(C)c(C)c2)S(=O)(=O)NC1=NCC(=O)NCCCc1ccccc1`, the IC50 was 46.8 µM.
`Cc1ccc2nc(CCc3ccc(NS(=O)(=O)c4cccc(Cl)c4C)cc3)[nH]c2c1` was tested, and the IC50 was > 50 µM (inactive).
In the case of `Cc1ccc2nc(N3CCc4ccccc4C3)c3nncn3c2c1`, the IC50 is reported as > 50 µM (inactive).
`O=C(Nc1ccc2c(c1)OCCO2)Nc1nnc(CC(=O)N2CCCCC2)s1` was tested, and the IC50 was > 50 µM (inactive).
In the case of `Cc1cc2nc(/C=C/c3ccccc3)n(Cc3cccc(F)c3)c2cc1C`, the IC50 is reported as > 50 µM (inactive).
For `CN(C)S(=O)(=O)c1ccc(N2CCCC2)c(C(=O)Nc2ccc(-c3cn4ccsc4n3)cc2)c1`, the IC50 was > 50 µM (inactive).
With `COc1ccc(NC(=O)c2[nH]nc3c2COc2ccccc2-3)c(OC)c1` the IC50 was 19.1 µM.
For `CCc1nc(N2CCCC2=O)sc1C(=O)Nc1cccc(C(C)=O)c1`, the IC50 was > 50 µM (inactive).
With `CCc1nc2c(NC(=O)Nc3cccc(C(=O)OC)c3)cccn2n1` the IC50 was > 50 µM (inactive).
With `CCCCN(C)C(=O)c1cc2c(=O)n3cccc(C)c3nc2n1Cc1ccccc1` the IC50 was > 50 µM (inactive).
`CCn1ccc2c(cc(C(=O)Nc3ccccc3F)n2C)c1=O` was tested, and the IC50 was > 50 µM (inactive).
For `Cc1ccc(C)c(NC(=O)CCc2nc(CSc3nc4ccccc4o3)no2)c1`, the IC50 was 22 µM.
With `O=C(CCc1nnc2n(Cc3ccc(F)cc3)c(=O)c3ccccc3n12)N1CCN(c2ccccn2)CC1` the IC50 was > 50 µM (inactive).
